Test results from patent publication US7179954B1, “Isolated nucleic acids coding for a nuclear base transporter and uses thereof” (Carnegie Insitution of Washington, priority 1999, dated 2007).

Columns and labels:
[1] = molecular target: T1, PUP1 nuclear base transporter (Arabidopsis thaliana, UniProt Q9FZ96, S63G); type: cell-based; conditions: for Transport of cytokinin by PUP1: 3H-labelled cytokinins
T1 construct: The PUP1 protein expressed by the yeast strain MG887ura3^−::pFL61-PUP1; expressed in transfected cells; host or cells: Saccharomyces cerevisiae MG887ura3- (fcy2), plasmid pFL61-PUP1
Protocol: The uptake was set temporarily at a concentration of 100 μM trans-zeatin. In this case PUP1 was expressed under control of the yeast ATPase promoter PMA1 in the vector pDR195 (Rentsch et al., 1995, FEBS Left. 370, […]) in the mutant MG877ura3^−::(FCY). The empty vector (FCY2pDR195) served as control.
(§1) For measuring the rate of uptake the yeast strains MG887ura3^−::pFL61, MG887ura3^−::pFL61-PUP1 and their original strain Σ1278b (Dubois & Grenson, 1979, Mol. Gen. Genet. 175, 67–76) were cultured in complete medium (YPD) without uracil and with 2% glucose as carbon source up to an OD600 of 0.6 at 28° C. The cells were harvested at 3000 g, washed twice with water and brought to an OD600 of 12 with sodium phosphate buffer (100 mM, pH 4.5), 1% glucose. The cell suspension was stored in 100 μl portions on ice up to the beginning of the uptake measurements. Before the start of the uptake measurements the cells were pre-incubated at 30° C. for 2 minutes. The reaction was then started, by which 100 μl of radioactively labelled substrate solution was added to 100 μl cell suspension. The reaction mixture was incubated at 30° C. and after 30, 60, 120 and 180 seconds in each case 50 μl of suspension was withdrawn and placed in 4 ml of ice-cold water (in measurements over 180 seconds more cell suspension and substrate solution were correspondingly added). The cells were absorbed on to glass fibre filters and washed with 4 ml of ice-cold water. The radioactivity on the filters was finally ascertained in a liquid scintillation counter.
The uptake experiments were carried out with ^3H-labelled zeatine in MG887ura3^− as for adenine. To start the reaction 87.3Bq/μl of the radioactive substrate was added to a total concentration of 100 μM trans-zeatine.

[2] = molecular target: T1, PUP1 nuclear base transporter; test: Influence of inhibitors on PUP1-mediated adenine or cytosine uptake in yeast strain MG887ura3-::pFL61-PUP1; type: cell-based; conditions: for Relative adenine uptake / Relative cytosine uptake: added five minutes before measurement, without inhibitor = 100; for Effect on PUP1-mediated adenine or cytosine uptake: statement in words
Protocol: as §1
(§2) Substrate solution: For the substrate solution what is concerned is a 100 mM sodium phosphate buffer pH 4.5 with 1% glucose and 9.25 Bq/μl of radioactively labelled substrate (25–100 μM [^14C] adenine or [^14C] cytosine). In addition the substrate solution contains the unlabelled substrate, possible inhibitors and competitors in double end-concentration. For estimation of the optimum pH the pH value of the sodium phosphate buffer is also changed. When the influence of glucose on the uptake rate is measured neither the cell suspension nor the substrate solution contains glucose. Glucose is only added after starting the uptake measurements at the commencement of measuring at an end-concentration of 1%.
The influence of various inhibitors on the adenine or cytosine uptake mediated by the PUP1 nuclear base transporter in the yeast strain MG887ura3^−::pFL61-PUP1 is indicated in Table 2. The inhibitors were added to the cells five minutes before beginning the measurements. […] This may be taken as a clear indication of a secondarily active proton-associated uptake mechanism.

[3] = molecular target: T2, PUP1 nuclear base transporter (Arabidopsis thaliana, UniProt Q9FZ96); test: Uptake of radioactively labelled adenine and cytosine by yeast strain MG887ura3-::pFL61-PUP1; type: cell-based; conditions: initial concentration medium 200 μM; intracellular, cell volume estimated as four times the dry weight
T2 construct: The PUP1 protein expressed by the yeast strain MG887ura3^−::pFL61-PUP1; expressed in transfected cells; host or cells: Saccharomyces cerevisiae MG887ura3- (fcy2), plasmid pFL61-PUP1
Protocol: as §1, §2
(§3) In Table 1 the uptake of radioactively labelled adenine and cytosine mediated by the PUP1 nuclear base transporter is indicated by the yeast strain MG887ura3^−::pFL61-PUP1. For calculation of the intracellular concentration the cell volume is estimated as four times the dry weight (Ninnemann et al., 1994, EMBO J. 15, 3464–3471). The uptake occurs against a concentration gradient.

[4] = molecular target: T1, PUP1 nuclear base transporter; test: as above; type: cell-based
Protocol: as §1, §2, §3

[5] = molecular target: T3, PUP1 (Arabidopsis thaliana, UniProt Q9FZ96, S63G); test: Growth of yeast strain DM734-284D on adenosine minimal medium (adenosine transport complementation); type: cell-based; set-up: PUP1 was expressed under control of the yeast ATPase promoter PMA1 in the vector pDR195; expressed in transfected cells; host or cells: Saccharomyces cerevisiae MG887ura3- (A5, A8) or DM734-284D (A7), construct pDR195PUP1; conditions: minimal medium with 150 μM adenosine instead of adenine; after 3 days
Source text: The Saccharomyces cerevisiae strain DM734-284D (genotype: ade8-18, ade2-1, arg-4-16, leu2-17, trp1-1, lys2, ura3: Yeast Genetic Stock Center) was used for growth studies. This yeast strain owing to mutations at the gene loci ade 8-18 and ade 2-1 is not itself in a position to synthesize adenine. […] This adenine is taken up via the purine/cytosine transporter FCY2 of the yeast. The DM734-284D strain is however still in a position to grow in medium containing adenosine instead of adenine, provided adenosine transport in the yeast cells is mediated by an adenosine transporter inserted by genetic engineering.
In order to check whether PUP1 mediates the transport of adenosine, the strain DM734-284D was transformed according to the standard procedure for yeast transformation (Dohmen et al., 1991, Yeast 7,691–692) with the constructs pDR195PUP1 and pDR195 as controls (Rentsch et al., 1995, FEBS Lett. 370, […]). For final checking of the transformation the early stages of transformation were plated on minimal medium containing 150 μM adenine and the amino acids arginine, leucine, tryptophane (each 60 mg/l) and lysine (70 mg/l) necessary for growth. Uracil served as transformation marker. Three independent positive clones of the control and the PUP1-expressing clone were plated on minimal medium containing 150 μM adenosine instead of 150 μM adenine.

[6] = molecular target: T3, PUP1; test: Sensitivity of yeast MG887ura3- clones to caffeine-containing minimal medium; type: cell-based; set-up: PUP1 was expressed under control of the yeast ATPase promoter PMA1 in the vector pDR195; expressed in transfected cells; host or cells: Saccharomyces cerevisiae MG887ura3- (A5, A8) or DM734-284D (A7), construct pDR195PUP1; conditions: minimal medium plates, 6 days at 28° C.
Protocol: In order to check whether PUP1 mediates the transport of caffeine, the sensitivity of the Saccharomyces cerevisiae strain MG887ura3^− to caffeine-containing minimal medium was investigated. At certain concentrations caffeine is toxic to yeast (Bard et al., J. Bacteriol. 141, 999–1002), leading to slower growth or death of the yeast.
For this test various caffeine concentrations between 0 and 1.5% were put into minimal medium. Yeast clones grown in liquid minimal medium for 16 hours were spread out on the corresponding plates and incubated for 6 days at 28° C.

[7] = molecular target: T1, PUP1 nuclear base transporter; test: cell-based
Protocol: as §1

T3 sequence (Q9FZ96 whole entry S63G): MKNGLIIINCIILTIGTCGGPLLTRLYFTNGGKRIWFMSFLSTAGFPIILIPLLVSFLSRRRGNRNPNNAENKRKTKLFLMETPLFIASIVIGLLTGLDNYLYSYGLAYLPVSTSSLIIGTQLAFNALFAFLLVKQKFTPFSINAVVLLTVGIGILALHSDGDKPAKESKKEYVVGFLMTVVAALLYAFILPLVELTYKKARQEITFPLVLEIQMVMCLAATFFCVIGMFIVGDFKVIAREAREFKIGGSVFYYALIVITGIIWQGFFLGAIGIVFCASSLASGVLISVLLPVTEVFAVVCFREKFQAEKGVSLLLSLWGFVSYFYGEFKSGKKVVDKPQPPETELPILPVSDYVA
T1 sequence (Q9FZ96 whole entry S63G): as above
T2 sequence (Q9FZ96 whole entry S63G): as above

2-isopentenyl adenine was tested, and the “Transport of cytokinin by PUP1” value [1] was “can also transport cytokinins”.

In the case of O=[N+]([O-])c1ccc(O)c([N+](=O)[O-])c1 [2,4-DNP, 2,4-dinitrophenol], the Relative adenine uptake ([2]; 100 μM inhibitor) is reported as 54%, the Relative cytosine uptake ([2]; 100 μM inhibitor) is reported as 58% and the “Effect on PUP1-mediated adenine or cytosine uptake” value (“Effect” below) [2] is reported as “block the uptake”.

In the case of N#CC(C#N)=NNc1cccc(Cl)c1 [CCCP, carbonyl-cyanide-m-chlorphenylhydrazone], the Relative adenine uptake ([2]; 100 μM inhibitor) is reported as 13%, the Relative cytosine uptake ([2]; 100 μM inhibitor) is reported as 20% and the “Effect” value [2] is reported as “block the uptake”.

Nc1cc[nH]c(=O)n1 [Cytosine, cytosine] was tested, and the “End conc Cells” value [3] was 2660 µM, the Enrichment factor ([4]; cells versus medium, initial concentration medium 200 μM) was 18 and the “End conc. Medium” value ([4]; initial concentration medium 200 μM, yeast strain MG887ura3-::pFL61-PUP1) was 145 µM. The “pH dependence of PUP1-mediated uptake” value ([4]; yeast strain MG887ura3-::pFL61-PUP1, FIG. 2, substrate 100 μM) was “dependent on the pH level” and the “Glucose dependence of PUP1-mediated uptake” value ([4]; yeast strain MG887ura3-::pFL61-PUP1, FIG. 3, glucose 1%) was “glucose-dependent”.

Compound C(=NC1CCCCC1)=NC1CCCCC1 [DCCD] has a Relative adenine uptake ([2]; 100 μM inhibitor) of 47% and a Relative cytosine uptake ([2]; 100 μM inhibitor) of 55%.

Nc1ncnc2c1ncn2[C@@H]1O[C@H](CO)[C@@H](O)[C@H]1O [adenosine] was tested, and the “Growth of PUP1-expressing clone” value [5] was “Definite growth” and the “Growth of clone transformed with the vector pDR195 (control)” value [5] was “no growth”.

With Cn1c(=O)c2c(ncn2C)n(C)c1=O [caffeine] the “Caffeine concentration from which PUP1-expressing yeasts displayed distinctly slowed-down growth compared to control and PUP2-expressing strain” value [6] was ≥ 0.2%.

C[C@@H]1C[C@@H]([C@H](O)CC2CC(=O)NC(=O)C2)C(=O)[C@@H](C)C1 [cycloheximide] was tested, and the Relative adenine uptake ([2]; 10 μg/ml inhibitor) was 95% and the Relative cytosine uptake ([2]; 10 μg/ml inhibitor) was 97%.

With CC/C(=C(/CC)c1ccc(O)cc1)c1ccc(O)cc1 [diethylstilboestrol] the Relative adenine uptake ([2]; 100 μM inhibitor) was 4%, the Relative cytosine uptake ([2]; 100 μM inhibitor) was 8% and the “Effect” value [2] was “block the uptake”.

c1coc(CNc2ncnc3[nH]cnc23)c1 [kinetin] was tested, and the Ki [7] was 35 µM.

With C/C(=C\CNc1ncnc2[nH]cnc12)CO [zeatin] the Ki [7] was 30 µM, the “Increased uptake of radioactively labelled trans-zeatine, PUP1-expressing clone versus control strain (pDR195)” value ([1]; 100 μM trans-zeatine, three independent experiments) was 70 times and the “Transport of cytokinin by PUP1” value [1] was “can also transport cytokinins”.
